Measurements taken from US20240156822A1, “Methods For Treatment of Vitiligo” (Pfizer Inc., priority 2022, published 2024).

Test system: vitiligo
Assay: Clinical study of treatment of vitiligo: central read facial-VASI (primary efficacy endpoint)
Type: in vivo, human
Conditions: for Placebo-adjusted LS mean CFB (SE); % CFB in Central F-VASI at Week 24: oral once daily
Experimental: Subjects take the medication set forth herein orally once daily, and typically swallow the tablets whole with approximately one cup of ambient temperature water, without any manipulation or chewing. Dosing regimes include induction dosing of 100 or 200 mg and maintenance dosing of 50 mg, or a 24-week Treatment Period in which participants were treated with ritlecitinib 50 mg, 30 mg, or 10 mg. The induction period is an initial period of treatment of 4 weeks in the initial clinical trial. The maintenance period is 20 weeks Tablets may be taken with or without food. Subject response is evaluated at regular intervals after administration. The Vitiligo Area Scoring Index (VASI) is a validated quantitative scale, initially developed to measure the response of vitiligo to nbUVB treatment, but has since been used to evaluate various therapies for vitiligo. Clinical evaluations of vitiligo in this study include VASI, central read and site assessment of facial-VASI, static Investigator Global Assessment (sIGA), Body Surface Area (BSA) involvement, Vitiligo Extent Score (VES), and dermoscopy. Self-Assessment VES (SA-VES), Vitiligo Specific Quality of Life (VitiQoL), Dermatology Life Quality Index (DLQL), Hospital Anxiety and Depression Scale (HADS), Patient Global Impression of Change Vitiligo (PGIC-V), EQ-5D-5L, Healthcare Resource Utilization (HCRU) and Vitiligo Noticeability Scale (VNS). (b) Facial Vitiligo Area Scoring Index (Facial-VASI)—Central Read The central read facial-VASI are assessed based on the facial photographs taken at the site by a central reader. Clinical Trial Imaging Endpoint Process Standards—Guidance for Industry (April 2018). The central read facial-VASI is calculated using a formula that includes contribution of affected facial surface areas showing all six (6) different depigmentation rates (0.1, 0.25, 0.5, 0.75, 0.9 and 1) with a modified method described by Hamzavi et al. Hamzavi, I., […] The calculation of % affected total body surface area (BSA) is shown below: • Affected Facial Surface Area×4=% Affected Total Body Surface Area. Face is defined as the area from the hairline on top of the forehead to the jawline at the bottom of the cheeks. Facial-VASI (central read) will range from 0.000 to 4.000 by defining the affected Facial Surface Area (expressed as the value between 0.0 to 1.0) being 4% of total Body Surface Area. For example: 25% affected Facial Surface Area (0.25) represents 1% total body surface area (0.25×4). 15% affected Facial Surface Area (0.15) represents 0.6% total body surface area (0.15×4). The extent of depigmentation is expressed by the following percentages: 0, 10%, 25%, 50%, 75%, 90%, or 100%. At 100% depigmentation, no pigment is present; at 90%, specks of pigment are present; at 75%, the depigmented exceeded the pigmented area; at 50%, the depigmented and pigmented areas are equal; at 25%, the pigmented area exceeded the depigmented area; and at 10%, only specks of depigmentation are present. Scalp, neck, eyebrows, eyelashes, and vermilion are excluded from this calculation, although total VASI assessment includes all of these regions.

C=CC(=O)N1C[C@H](Nc2ncnc3[nH]ccc23)CC[C@@H]1C [Ritlecitinib, 1-[(2S,5R)-2-methyl-5-(7H-pyrrolo[2,3-d]pyrimidin-4-ylamino)-1-piperidinyl]-2-propen-1-one]
Efficacy criterion for the primary endpoint (% CFB in Central F-VASI at Week 24) (initial clinical studies): met the efficacy criterion for the primary endpoint
Placebo-adjusted LS mean CFB (SE); % CFB in Central F-VASI at Week 24 (treatment group 10 mg, 24-week treatment period): −4.13%
Placebo-adjusted LS mean CFB (SE); % CFB in Central F-VASI at Week 24 (treatment group 30 mg, 24-week treatment period): −16.93%
Placebo-adjusted LS mean CFB (SE); % CFB in Central F-VASI at Week 24 (treatment group 50 mg, 24-week treatment period): −22.05%
Placebo-adjusted LS mean CFB (SE); % CFB in Central F-VASI at Week 24 (treatment group 100/50 mg (induction 100 mg 4 weeks, maintenance 50 mg 20 weeks)): −22.99%
Placebo-adjusted LS mean CFB (SE); % CFB in Central F-VASI at Week 24 (treatment group 200/50 mg (induction 200 mg 4 weeks, maintenance 50 mg 20 weeks)): −23.62%
